Source: patent US20250388605A1, “HETEROBIFUNCTIONAL COMPOUNDS AND METHODS OF TREATING DISEASE” (Halda Therapeutics OpCo, Inc., priority 2022, published 2025)

Columns and labels:
[1] = biological target: T1, BRD4-BD1 (Homo sapiens, UniProt O60885); assay: Binding affinity to BRD4-BD1 (bromoKdELECT assay); conditions: 11-point 3-fold dilution series
T1 construct: made in house; host or cells: T7 phage grown in an E. coli host derived from the BL21 strain
Protocol: (§1) Compounds were tested using a bromoKdELECT assay. T7 phage strains displaying bromodomains were grown in parallel in 24-well blocks in an E. coli host derived from the BL21 strain. E. coli were grown to log-phase and infected with T7 phage from a frozen stock (multiplicity of infection=0.4) and incubated with shaking at 32° C. until lysis (90-150 minutes). The lysates were centrifuged (5,000×g) and filtered ([…]) to remove cell debris. Streptavidin-coated magnetic beads were treated with biotinylated small molecule or acetylated peptide ligands for 30 minutes at room temperature to generate affinity resins for bromodomain assays. The liganded beads were blocked with excess biotin and washed with blocking buffer (SeaBlock (Pierce), 1% BSA, 0.05% Tween 20, 1 mM DTT) to remove unbound ligand and to reduce nonspecific phage binding. Binding reactions were assembled by combining bromodomains, liganded affinity beads, and test compounds in 1× binding buffer (17% SeaBlock, 0.33×PBS, 0.04% Tween 20, 0.02% BSA, 0.004% Sodium azide, 7.4 mM DTT). Test compounds were prepared as 1000× stocks in 100% DMSO. Kds were determined using an 11-point 3-fold compound dilution series with one DMSO control point. All compounds for Kd measurements are distributed by acoustic transfer (non-contact dispensing) in 100% DMSO. The compounds were then diluted directly into the assays such that the final concentration of DMSO was 0.09%. All reactions performed in polypropylene 384-well plates. Each was a final volume of 0.02 ml. The assay plates were incubated at room temperature with shaking for 1 hour and the affinity beads were washed with wash buffer (1×PBS, 0.05% Tween 20). The beads were then resuspended in elution buffer (1×PBS, 0.05% Tween 20, 2 M non-biotinylated affinity ligand) and incubated at room temperature with shaking for 30 minutes. The bromodomain concentration in the eluates was measured by qPCR.

[2] = biological target: T2, BRD4-BD2 (Homo sapiens, UniProt O60885); assay: Binding affinity to BRD4-BD2 (bromoKdELECT assay); conditions: 11-point 3-fold dilution series
T2 construct: made in house; host or cells: T7 phage grown in an E. coli host derived from the BL21 strain
Protocol: as §1, with “2 μM” for “2 M”

[3] = system: VCaP cells; assay: Cellular growth inhibition assay for VCaP cells, CellTiter-Glo; type: cell-based, human; conditions: Homo sapiens, 72 hours
Outline: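 GI50 values come from four-parameter curve fits of luminescence data normalized to a zero baseline. Compound, in medium with 0.5% DMSO, was added one day after plating and left for 72 h before CellTiter-Glo 2.0 addition.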

Compound	Kd [1] [nM]	Kd [2] [nM]	GI50 [3] [nM]
CCS(=O)(=O)Nc1ccc(Oc2cccc(OCCOCCOCCOCCOCCN(C)c3ncc(C(=O)N[C@H]4C(C)(C)[C@H](Oc5ccc(C#N)c(Cl)c5)C4(C)C)cn3)c2)c(-c2cn(C)c(=O)c3[nH]ccc23)c1 [Compound I-3]	< 50	< 50	< 500
CCS(=O)(=O)Nc1ccc(Oc2cccc(OCCOCCOCCOC3CCN(c4ncc(C(=O)N[C@H]5C(C)(C)[C@H](Oc6ccc(C#N)c(Cl)c6)C5(C)C)cn4)CC3)c2)c(-c2cn(C)c(=O)c3[nH]ccc23)c1 [Compound I-7]	500 to 2500	< 50	< 500
CCS(=O)(=O)Nc1ccc(Oc2cccc(OCCOCCOCCOCCOCCOC3CCN(c4ncc(C(=O)N[C@H]5C(C)(C)[C@H](Oc6ccc(C#N)c(Cl)c6)C5(C)C)cn4)CC3)c2)c(-c2cn(C)c(=O)c3[nH]ccc23)c1 [Compound I-8]	50 to 500	< 50	< 500
CCS(=O)(=O)Nc1ccc(Oc2cccc(OCCOCCOC3CCN(c4ncc(C(=O)N[C@H]5C(C)(C)[C@H](Oc6ccc(C#N)c(Cl)c6)C5(C)C)cn4)CC3)c2)c(-c2cn(C)c(=O)c3[nH]ccc23)c1 [Compound I-13]	500 to 2500	< 50	< 500
CCS(=O)(=O)Nc1ccc(Oc2cccc(N(C)C3CN(CC4CCN(c5ncc(C(=O)NC6C(C)(C)C(Oc7ccc(C#N)c(Cl)c7)C6(C)C)cn5)CC4)C3)c2)c(-c2cn(C)c(=O)c3[nH]ccc23)c1 (stereo not drawn) [Compound I-39]	< 50	< 50	< 500
Cn1cc(-c2ccccc2Oc2cccc(OCCOC3CCN(c4ncc(C(=O)N[C@H]5C(C)(C)[C@H](Oc6ccc(C#N)c(Cl)c6)C5(C)C)cn4)CC3)c2)c2cc[nH]c2c1=O [Compound I-61, N-((1r, 3r)-3-(3-chloro-4-cyanophenoxy)-2,2,4,4-tetramethylcyclobutyl)-2-(4-(2-(3-(2-(6-methyl-7-oxo-6,7-dihydro-1H-pyrrolo[2,3-c]pyridin-4-yl)phenoxy)phenoxy)ethoxy)piperidin-1-yl)pyrimidine-5-carboxamide]	> 2500	> 2500	< 500
Cn1cc(-c2cc(N)ccc2Oc2cccc(OCCOC3CCN(c4ncc(C(=O)N[C@H]5C(C)(C)[C@H](Oc6ccc(C#N)c(Cl)c6)C5(C)C)cn4)CC3)c2)c2cc[nH]c2c1=O [Compound I-62, 2-(4-(2-(3-(4-amino-2-(6-methyl-7-oxo-6,7-dihydro-1H-pyrrolo[2,3-c]pyridin-4-yl)phenoxy)phenoxy)ethoxy)piperidin-1-yl)-N-((1r, 3r)-3-(3-chloro-4-cyanophenoxy)-2,2,4,4-tetramethylcyclobutyl)pyrimidine-5-carboxamide]	> 2500	> 2500	< 500
CCS(=O)(=O)Nc1ccc(Oc2ccc(F)c(OCCOC3CCN(c4ncc(C(=O)N[C@H]5C(C)(C)[C@H](Oc6ccc(C#N)c(Cl)c6)C5(C)C)cn4)CC3)c2F)c(-c2cn(C)c(=O)c3[nH]ccc23)c1 [Compound I-65]	500 to 2500	< 50	< 500
CCS(=O)(=O)Nc1ccc(Oc2cccc(N3CC(N4CCN(c5ncc(C(=O)N[C@H]6C(C)(C)[C@H](Oc7ccc(C#N)c(Cl)c7)C6(C)C)cn5)CC4)C3)c2)c(-c2cn(C)c(=O)c3[nH]ccc23)c1 [Compound I-75]	50 to 500	50 to 500	< 500

Further lines, results first:

Kd [1] [nM]	Kd [2] [nM]	GI50 [3] [nM]	Compound
50 to 500	< 50	< 500	CCS(=O)(=O)Nc1ccc(Oc2cccc(OCCN(C)c3ncc(C(=O)N[C@H]4C(C)(C)[C@H](Oc5ccc(C#N)c(Cl)c5)C4(C)C)cn3)c2)c(-c2cn(C)c(=O)c3[nH]ccc23)c1 [Compound I-1, N-((1r, 3r)-3-(3-chloro-4-cyanophenoxy)-2,2,4,4-tetramethylcyclobutyl)-2-((2-(3-(4-(ethylsulfonamido)-2-(6-methyl-7-oxo-6,7-dihydro-1H-pyrrolo[2,3-c]pyridin-4-yl)phenoxy)phenoxy)ethyl)(methyl)amino)pyrimidine-5-carboxamide]
> 2500	50 to 500	< 500	CCS(=O)(=O)Nc1ccc(Oc2cccc(OCCOC3CCN(c4ncc(C(=O)N[C@H]5C(C)(C)[C@H](Oc6ccc(C#N)c(Cl)c6)C5(C)C)cn4)CC3)c2)c(-c2cn(C)c(=O)c3[nH]ccc23)c1 [Compound I-6]
50 to 500	< 50	< 500	CCS(=O)(=O)Nc1ccc(Oc2cccc(OCCOC3CCN(c4ccc(C(=O)N[C@H]5C(C)(C)[C@H](Oc6ccc(C#N)c(Cl)c6)C5(C)C)nn4)CC3)c2)c(-c2cn(C)c(=O)c3[nH]ccc23)c1 [Compound I-11]
500 to 2500	< 50	< 500	CCS(=O)(=O)Nc1ccc(Oc2cccc(COC3CCN(c4ncc(C(=O)N[C@H]5C(C)(C)[C@H](Oc6ccc(C#N)c(Cl)c6)C5(C)C)cn4)CC3)c2)c(-c2cn(C)c(=O)c3[nH]ccc23)c1 [Compound I-18, N-((1r, 3r)-3-(3-chloro-4-cyanophenoxy)-2,2,4,4-tetramethylcyclobutyl)-2-(4-((3-(4-(ethylsulfonamido)-2-(6-methyl-7-oxo-6,7-dihydro-1H-pyrrolo[2,3-c]pyridin-4-yl)phenoxy)benzyl)oxy)piperidin-1-yl)pyrimidine-5-carboxamide]
> 2500	< 50	< 500	CCS(=O)(=O)Nc1ccc(Oc2cccc(OCCOC3CCN(c4ncc(C(=O)N[C@H]5C(C)(C)[C@H](Oc6ccc(C#N)c(Cl)c6)C5(C)C)cn4)CC3)n2)c(-c2cn(C)c(=O)c3[nH]ccc23)c1 [Compound I-47, N-((1r, 3r)-3-(3-chloro-4-cyanophenoxy)-2,2,4,4-tetra-methylcyclobutyl)-2-(4-(2-((6-(4-(ethylsulfonamido)-2-(6-methyl-7-oxo-6,7-dihydro-1H-pyrrolo[2,3-c]pyridin-4-yl)phenoxy)pyridin-2-yl)oxy)ethoxy)piperidin-1-yl)pyrimidine-5-carboxamide]
> 2500	50 to 500	< 500	CCS(=O)(=O)Cc1ccc(Oc2cccc(OCCOC3CCN(c4ncc(C(=O)N[C@H]5C(C)(C)[C@H](Oc6ccc(C#N)c(Cl)c6)C5(C)C)cn4)CC3)c2)c(-c2cn(C)c(=O)c3[nH]ccc23)c1 [Compound I-54, N-((1r, 3r)-3-(3-chloro-4-cyanophenoxy)-2,2,4,4-tetramethylcyclobutyl)-2-(4-(2-(3-(4-((ethylsulfonyl)methyl)-2-(6-methyl-7-oxo-6,7-dihydro-1H-pyrrolo[2,3-c]pyridin-4-yl)phenoxy)phenoxy)ethoxy)piperidin-1-yl)pyrimidine-5-carboxamide]
500 to 2500	50 to 500	< 500	Cn1cc(-c2cc(C(C)(C)O)ccc2Oc2cccc(OCCOC3CCN(c4ncc(C(=O)N[C@H]5C(C)(C)[C@H](Oc6ccc(C#N)c(Cl)c6)C5(C)C)cn4)CC3)c2)c2cc[nH]c2c1=O [Compound I-56, N-((1r, 3r)-3-(3-chloro-4-cyanophenoxy)-2,2,4,4-tetramethylcyclobutyl)-2-(4-(2-(3-(4-(2-hydroxypropan-2-yl)-2-(6-methyl-7-oxo-6,7-dihydro-1H-pyrrolo[2,3-c]pyridin-4-yl)phenoxy)phenoxy)ethoxy)piperidin-1-yl)pyrimidine-5-carboxamide]
50 to 500	50 to 500	< 500	CCS(=O)(=O)Nc1ccc(Oc2cccc(N3CC(OC4CCN(c5ncc(C(=O)N[C@H]6C(C)(C)[C@H](Oc7ccc(C#N)c(Cl)c7)C6(C)C)cn5)CC4)C3)c2)c(-c2cn(C)c(=O)c3[nH]ccc23)c1 [Compound I-80]
